System: mouse T lymphocytes
Test: T-cell proliferation assay (ionomycin plus PMA induced T-cell stimulation, tritiated thymidine uptake)
Format: cell-based
Details: T-lymphocyte, standard at 10 ng/ml
Protocol: The principle of this assay is to measure the proliferation of mouse T lymphocytes stimulated with the combination of ionomycin plus PMA. A positive sample in this assay will inhibit T-cell proliferation, as indicated by reduced tritiated thymidine uptake.
Purified L-683,756, as prepared by HPLC above, was dissolved in absolute ethanol at 1 mg/ml.
Spleens from C57B1/6 mice were taken under sterile conditions and gently dissociated in ice-cold RPMI 1640 culture medium (GIBCO, Grand Island, N.Y.) supplemented with 10% heat-inactivated fetal calf serum (GIBCO). Cells were pelleted by centrifugation at 1500 rpm for 8 minutes. […]
Purified T lymphocytes were resuspended at 2.5 x 10⁵ cells/ml in complete culture medium composed of RPMI 1640 medium with 10% heat-inactivated fetal calf serum, […] glutamine, 1 mM sodium pyruvate, 2 x 10⁻⁵ M 2-mercaptoethanol and 50 µg/ml gentamycin. […] The proliferation of T lymphocytes was assessed by measurement of tritiated thymidine incorporation. […] Radioactivity of filter discs corresponding to individual wells was measured by standard liquid scintillation counting methods (Betacounter). Mean counts per minute of replicate wells were calculated and the results expressed as percent inhibition of tritiated thymidine uptake (proliferation) as follows: [formula]

Q: `CC[C@@H]1/C=C(\C)C[C@H](C)C[C@H](OC)[C@H]2O[C@@](O)(C(=O)C(=O)N3CCCC[C@H]3C(=O)O[C@H](/C(C)=C/[C@@H]3CC[C@@H](O)[C@H](OC)C3)[C@H](C)[C@@H](O)CC1=O)[C@H](C)C[C@@H]2OC` [L-683,590] was tested. Which inhibition at 0.01 µg/mL did it give?
A: 99%

From patent EP0378320A2, “Microbial transformation product” (Merck & Co., Inc., priority 1989, dated 1990)
